Experimental data published in US10709711B2 (G1 Therapeutics, Inc., priority 2013, dated 2020).

Experiments:
[1] = test system: Daudi (human B-lymphoblastoid cell from Burkitt's Lymphoma patient); experiment: Inhibition of cellular proliferation, Daudi cells (CellTiter-Glo); format: cell-based; conditions: EC50 measured as illustrated in Example 150 (CellTiter-Glo)
Method: (§1) The SupT1 cells were seeded in Costar (Tewksbury, Mass.) 3093 96 well tissue culture treated white walled/clear bottom plates. A nine point dose response dilution series from 10 uM to 1 nM was performed and cell viability was determined after four days as indicated using the CellTiter-Glo® assay (CTG; Promega, Madison, Wis., United States of America) following the manufacturer's recommendations. Plates were read on a BioTek (Winooski, Vt.) Syngergy2 multi-mode plate reader. The Relative Light Units (RLU) were plotted as a result of variable molar concentration and data was analyzed using Graphpad (LaJolla, Calif.) Prism 5 statistical software to determine the IC50 for each compound.
(§2) The compounds listed in Table 1 were tested for the inhibition of cellular proliferation using SupT1 (human T-cell lymphoblastic leukemia) and Daudi (human B-lymphoblastoid cell from Burkitt's Lymphoma patient).

[2] = test system: SupT1 cells (human T-cell lymphoblastic leukemia); experiment: Inhibition of cellular proliferation, SupT1 cells (CellTiter-Glo); format: cell-based; conditions: SUP-T1, 96 h, cell viability after four days, nine point dilution series 10 uM to 1 nM
Method: as §1, §2

| Structure (SMILES) | EC50 [1] | EC50 [2] |
| --- | --- | --- |
| CCC(C)CN1CCN(c2ccc(Nc3ncc4cc5n(c4n3)C3(CCCC3)CNC5=O)nc2)CC1 (stereo not drawn) [AAA] | 3340 nM | 15 nM |
| CC(C)N1CCN(c2ccc(Nc3ncc4cc5n(c4n3)C3(CCCCC3)CNC5=O)nc2)C[C@@H]1C [AA] | 233 nM | 58 nM |
| C[C@H](O)CN1CCN(c2ccc(Nc3ncc4cc5n(c4n3)C3(CCCCC3)CNC5=O)nc2)CC1 [A] | 281 nM | 57 nM |
| CN1CCN(C(=O)c2ccc(Nc3ncc4cc5n(c4n3)C3(CCCC3)CNC5=O)nc2)CC1 [BBB] | 758 nM | 41 nM |
| CC1(C)CN(c2ccc(Nc3ncc4cc5n(c4n3)C3(CCCCC3)CNC5=O)nc2)CCN1C1CC1 [BB] | 472 nM | 70 nM |
| C[C@H]1CN(c2ccc(Nc3ncc4cc5n(c4n3)C3(CCCCC3)CNC5=O)nc2)CCN1CC1CC1 [B] | 385 nM | 96 nM |
| CC(C)(C)CCN1CCN(c2ccc(Nc3ncc4cc5n(c4n3)C3(CCCC3)CNC5=O)nc2)CC1(C)C [CCC] | 1860 nM | 133 nM |
| CCN(CC)C1CCN(c2ccc(Nc3ncc4cc5n(c4n3)C3(CCCCC3)CNC5=O)nc2)CC1 [CC] | 111 nM | 17 nM |
| C[C@H](O)CN1CCN(c2ccc(Nc3ncc4cc5n(c4n3)C3(CCCCC3)CNC5=O)nc2)C[C@@H]1C [C] | 373 nM | 74 nM |
| C[C@@H]1CN(c2ccc(Nc3ncc4cc5n(c4n3)C3(CCCC3)CNC5=O)nc2)C[C@H](C)N1 [DDD] | 839 nM | 161 nM |
| C[C@@H]1CN(c2ccc(Nc3ncc4cc5n(c4n3)C3(CCCCC3)CNC5=O)nc2)C[C@H](C)N1C [DD] | 546 nM | 105 nM |
| CN1CCN(c2ccc(Nc3ncc4cc5n(c4n3)C3(CCCCC3)CNC5=O)nc2)CC1(C)C [D] | 297 nM | 55 nM |
| CC(C)(O)CN1CCN(c2ccc(Nc3ncc4cc5n(c4n3)C3(CCCC3)CNC5=O)nc2)CC1 [EEE] | 475 nM | 65 nM |
| CC(C)N1CCN(Cc2ccc(Nc3ncc4cc5n(c4n3)C3(CCCCC3)CNC5=O)nc2)CC1 [EE] | 259 nM | 89 nM |
| CC(C)C1CN(c2ccc(Nc3ncc4cc5n(c4n3)C3(CCCCC3)CNC5=O)nc2)CCN1 (stereo not drawn) [E] | 140 nM | 9.3 nM |
| CCN1[C@H](C)CN(c2ccc(Nc3ncc4cc5n(c4n3)C3(CCCCC3)CNC5=O)nc2)C[C@@H]1C [FF] | 380 nM | 90 nM |
| O=C1NCC2(CCCCC2)n2c1cc1cnc(Nc3ccc(N4CCN(C5CCC5)CC4)cn3)nc12 [F] | 692 nM | 107 nM |

| Structure (SMILES) | EC50 [1] | EC50 [2] |
| --- | --- | --- |
| CC(C)N1CCN(c2ccc(Nc3ncc4cc5n(c4n3)C3(CCCC3)CNC5=O)nc2)CC1C (stereo not drawn) [GGG] | 586 nM | 161 nM |
| CC(C)N1CCN(c2ccc(Nc3ncc4cc5n(c4n3)C3(CCCCC3)CNC5=O)nc2)CC1 [GG] | – | 57 nM |
| CC1CN(c2ccc(Nc3ncc4cc5n(c4n3)C3(CCCCC3)CNC5=O)nc2)CCN1CCC(C)(C)C (stereo not drawn) [G] | 1530 nM | 156 nM |
| O=C1NCC2(CCCC2)n2c1cc1cnc(Nc3ccc(N4CCC(N5CCCCC5)CC4)cn3)nc12 [HHH] | 984 nM | 85 nM |
| O=C1NCC2(CCCCC2)n2c1cc1cnc(Nc3ccc(N4CCN(CC5CC5)CC4)cn3)nc12 [HH] | 681 nM | 79 nM |
| CC1(C)CN(c2ccc(Nc3ncc4cc5n(c4n3)C3(CCCCC3)CNC5=O)nc2)CCN1CC1CC1 [H] | 719 nM | 118 nM |
| CC(C)N1CCN(c2ccc(Nc3ncc4cc5n(c4n3)C3(CCCC3)CNC5=O)nc2)CC1 [III] | 775 nM | 230 nM |
| CC(C)N1CCN(C(=O)c2ccc(Nc3ncc4cc5n(c4n3)C3(CCCCC3)CNC5=O)nc2)CC1 [II] | 347 nM | 42 nM |
| CC1(C)CN(c2ccc(Nc3ncc4cc5n(c4n3)C3(CCCCC3)CNC5=O)nc2)CCN1 [I] | 249 nM | 39 nM |
| CCC(C)CN1[C@H](C)CN(c2ccc(Nc3ncc4cc5n(c4n3)C3(CCCC3)CNC5=O)nc2)C[C@@H]1C (stereo partly drawn) [JJJ] | 448 nM | 143 nM |
| CCN(CC)C1CCN(C(=O)c2ccc(Nc3ncc4cc5n(c4n3)C3(CCCCC3)CNC5=O)nc2)C1 (stereo not drawn) [JJ] | 389 nM | 49 nM |
| C[C@@H]1CN(c2ccc(Nc3ncc4cc5n(c4n3)C3(CCCCC3)CNC5=O)nc2)CCN1C[C@@H](C)O [J] | 362 nM | 47 nM |
| C[C@H]1CN(c2ccc(Nc3ncc4cc5n(c4n3)C3(CCCCC3)CNC5=O)nc2)CCN1 [KK] | 147 nM | 112 nM |
| CC1CCN(C2CCN(c3ccc(Nc4ncc5cc6n(c5n4)C4(CCCCC4)CNC6=O)nc3)CC2)C1 (stereo not drawn) [K] | 167 nM | 134 nM |
| CCN(CC)C1CCN(c2ccc(Nc3ncc4cc5n(c4n3)C3(CCCC3)CNC5=O)nc2)CC1 [LLL] | 1550 nM | 241 nM |
| O=C1NCC2(CCCCC2)n2c1cc1cnc(Nc3ccc(C(=O)N4CCN(C5CCC5)CC4)cn3)nc12 [LL] | 501 nM | 84 nM |

More lines, now with the values ahead:

| EC50 [1] | EC50 [2] | Structure (SMILES) |
| --- | --- | --- |
| 1260 nM | 153 nM | CC(C)N1CCN(c2ccc(Nc3ncc4cc5n(c4n3)C3(CCCCC3)CNC5=O)nc2)C[C@H]1C [L] |
| 294 nM | 37 nM | CCOCCN1CCN(c2ccc(Nc3ncc4cc5n(c4n3)C3(CCCC3)CNC5=O)nc2)CC1 [MMM] |
| 681 nM | 84 nM | C[C@@H]1CN(c2ccc(Nc3ncc4cc5n(c4n3)C3(CCCCC3)CNC5=O)nc2)C[C@H](C)N1C[C@@H](C)O [MM] |
| 1460 nM | 184 nM | C[C@@H]1CN(c2ccc(Nc3ncc4cc5n(c4n3)C3(CCCCC3)CNC5=O)nc2)C[C@H](C)N1CCC(C)(C)C [M] |
| 519 nM | 160 nM | CC1CN(c2ccc(Nc3ncc4cc5n(c4n3)C3(CCCC3)CNC5=O)nc2)CCN1CC1CC1 (stereo not drawn) [NNN] |
| 1040 nM | 84 nM | C[C@@H]1CN(c2ccc(Nc3ncc4cc5n(c4n3)C3(CCCCC3)CNC5=O)nc2)CCN1C [NN] |
| 122 nM | 34 nM | O=C1NCC2(CCCCC2)n2c1cc1cnc(Nc3ccc(N4CCC(N5CCCCC5)CC4)cn3)nc12 [N] |
| 668 nM | 104 nM | O=C1NCC2(CCCC2)n2c1cc1cnc(Nc3ccc(C(=O)N4CCN(CC5CC5)CC4)cn3)nc12 [OOO] |
| 880 nM | 114 nM | CC1CN(c2ccc(Nc3ncc4cc5n(c4n3)C3(CCCCC3)CNC5=O)nc2)CC(C)N1CC1CC1 (stereo not drawn) [OO] |
| 123 nM | 44 nM | CN(C)C1CCN(c2ccc(Nc3ncc4cc5n(c4n3)C3(CCCCC3)CNC5=O)nc2)CC1 [O] |
| – | 3040 nM | CC1CN(c2ccc(Nc3ncc4cc5n(c4n3)C3(CCCC3)CNC5=O)nc2)CC(C)N1CCC(C)(C)C (stereo not drawn) [PPP] |
| 260 nM | 81 nM | CC(C)N1CCN(c2ccc(Nc3ncc4cc5n(c4n3)C3(CCCCC3)CNC5=O)nc2)CC1C (stereo not drawn) [PP] |
| 140 nM | 33 nM | C[C@@H]1CN(c2ccc(Nc3ncc4cc5n(c4n3)C3(CCCCC3)CNC5=O)nc2)C[C@H](C)N1 [P] |
| 485 nM | 258 nM | O=C1NCC2(CCCC2)n2c1cc1cnc(Nc3ccc(N4CCNCC4)cn3)nc12 [QQQ] |
| 851 nM | 68 nM | CCN(CC)C1CCN(c2ccc(Nc3ncc4cc5n(c4n3)C3(CCCCC3)CNC5=O)nc2)C1 (stereo not drawn) [QQ] |
| 561 nM | 40 nM | O=C1NCC2(CCCCC2)n2c1cc1cnc(Nc3ccc(N4CCNCC4)cn3)nc12 [Q] |

| EC50 [1] | EC50 [2] | Structure (SMILES) |
| --- | --- | --- |
| 2010 nM | 278 nM | CC(C)N1CCN(c2ccc(Nc3ncc4cc5n(c4n3)C3(CCCC3)CNC5=O)nn2)CC1 [RRR] |
| 158 nM | 102 nM | CCN(CC)C1CCN(C2CCN(c3ccc(Nc4ncc5cc6n(c5n4)C4(CCCCC4)CNC6=O)nc3)CC2)C1 (stereo not drawn) [RR] |
| 299 nM | 43 nM | C[C@H]1CN(c2ccc(Nc3ncc4cc5n(c4n3)C3(CCCCC3)CNC5=O)nc2)CCN1C [R] |
| > 3000 nM | 305 nM | O=C1NCC2(CCCC2)n2c1cc1cnc(Nc3ccc(N4CCOCC4)nn3)nc12 [SSS] |
| 967 nM | 11 nM | CN(C)C1CCN(c2ccc(Nc3ncc4cc5n(c4n3)C3(CCCCC3)CNC5=O)nn2)CC1 [SS] |
| 634 nM | 110 nM | C[C@@H](O)CN1CCN(c2ccc(Nc3ncc4cc5n(c4n3)C3(CCCCC3)CNC5=O)nc2)CC1 [S] |
| 3300 nM | 587 nM | CN(C)C1CCN(c2ccc(Nc3ncc4cc5n(c4n3)C3(CCCC3)CNC5=O)nn2)CC1 [TTT] |
| 589 nM | 92 nM | CC(C)N1CCN(c2ccc(Nc3ncc4cc5n(c4n3)C3(CCCCC3)CNC5=O)nn2)CC1 [TT] |
| 392 nM | 113 nM | CN1CCN(c2ccc(Nc3ncc4cc5n(c4n3)C3(CCCCC3)CNC5=O)nc2)CC1 [T] |
| 1420 nM | 311 nM | CC(C)[C@H]1CNC(=O)c2cc3cnc(Nc4ccc(N5CCNCC5)cn4)nc3n21 [UUU] |
| 3160 nM | 228 nM | CCN(CC)C1CCN(c2ccc(Nc3ncc4cc5n(c4n3)C3(CCCC3)CNC5=O)nc2)C1 (stereo not drawn) [UU] |
| 363 nM | 48 nM | O=C1NCC2(CCCCC2)n2c1cc1cnc(Nc3ccc(N4CCC(N5CCOCC5)CC4)cn3)nc12 [U] |
| 1070 nM | 224 nM | CCC(C)[C@@H]1CNC(=O)c2cc3cnc(Nc4ccc(N5CCNCC5)cn4)nc3n21 (stereo partly drawn) [VVV] |
| 683 nM | 115 nM | C[C@@H](O)CN1CCN(c2ccc(Nc3ncc4cc5n(c4n3)C3(CCCC3)CNC5=O)nc2)C[C@@H]1C [VV] |
| 194 nM | 35 nM | C[C@@H]1CN(c2ccc(Nc3ncc4cc5n(c4n3)C3(CCCCC3)CNC5=O)nc2)CCN1 [V] |
